This note sets out measurements from patent publication US8829007B2 (priority 2009, dated 2014).

The first assay deals with influenza A virus (A/PR/8/34). Description: microbe, parasite or virus in culture. To be noted: Influenza A virus, PR/8, MDCK, MDCK cells infected with A/PR/8/34, cell protection (CPE); read-out: IC50 (mean all). The class given is cell-based.
Broadly, the IC50 is the midpoint of a concentration-inhibition curve. With `O=C(Cn1cnnn1)N1CCC[C@@H](CNc2nc(-c3c[nH]c4ncc(Cl)cc34)ncc2F)C1` [Compound 48, (S)-1-(3-((2-(5-chloro-1H-pyrrolo[2,3-b]pyridin-3-yl)-5-fluoropyrimidin-4-ylamino)methyl)piperidin-1-yl)-2-(1H-tetrazol-1-yl)ethanone], the IC50 is over 20 µM.

As to `CNC(=O)N1CCC[C@@H](CNc2nc(-c3c[nH]c4ncc(Cl)cc34)ncc2F)C1` [Compound 29, (S)-3-((2-(5-chloro-1H-pyrrolo[2,3-b]pyridin-3-yl)-5-fluoropyrimidin-4-ylamino)methyl)-N-methylpiperidine-1-carboxamide], the IC50 is 5 to 20 µM. In the case of `CC(=O)c1cccc(NC(=O)N2CCC[C@H](CNc3nc(-c4c[nH]c5ncc(Cl)cc45)ncc3F)C2)c1` [Compound 77, (R)-3-((2-(5-chloro-1H-pyrrolo[2,3-b]pyridin-3-yl)-5-fluoropyrimidin-4-ylamino)methyl)-N-(3-ethanoylphenyl)piperidine-1-carboxamide], the half-maximal inhibitory concentration (IC50) was in the range of 5 to 20 µM. For `O=C(c1c(Cl)cccc1Cl)N1CCC[C@H](CNc2nc(-c3c[nH]c4ncc(Cl)cc34)ncc2F)C1` [Compound 96, (R)-(3-((2-(5-chloro-1H-pyrrolo[2,3-b]pyridin-3-yl)-5-fluoropyrimidin-4-ylamino)methyl)piperidin-1-yl)(2,6-dichlorophenyl)methanone], the IC50 fell in the range of 5 to 20 µM. Still for that read-out and setting: the result for `OCCN1CCC[C@@H](CNc2nc(-c3c[nH]c4ncc(Cl)cc34)ncc2F)C1` [Compound 133, (S)-2-(3-((2-(5-chloro-1H-pyrrolo[2,3-b]pyridin-3-yl)-5-fluoropyrimidin-4-ylamino)methyl)piperidin-1-yl)ethanol] reads over 20 µM; that for `CC(C)(C)C(=O)CN1CCC[C@@H](CNc2nc(-c3c[nH]c4ncc(Cl)cc34)ncc2F)C1` [Compound 140, (S)-1-(3-((2-(5-chloro-1H-pyrrolo[2,3-b]pyridin-3-yl)-5-fluoropyrimidin-4-ylamino)methyl)piperidin-1-yl)-3,3-dimethylbutan-2-one], over 20 µM. In the case of `Cc1ccccc1CN1CCC[C@@H](CNc2nc(-c3c[nH]c4ncc(Cl)cc34)ncc2F)C1` [Compound 139, (S)-2-(5-chloro-1H-pyrrolo[2,3-b]pyridin-3-yl)-5-fluoro-N-((1-(2-methylbenzyl)piperidin-3-yl)methyl)pyrimidin-4-amine], the half-inhibitory concentration (IC50) is over 20 µM. On the same count and under the same terms, the same measure for `O=C(Cn1ccnc1)N1CCC[C@@H](CNc2nc(-c3c[nH]c4ncc(Cl)cc34)ncc2F)C1` [Compound 50, (S)-1-(3-((2-(5-chloro-1H-pyrrolo[2,3-b]pyridin-3-yl)-5-fluoropyrimidin-4-ylamino)methyl)piperidin-1-yl)-2-(1H-imidazol-1-yl)ethanone]: over 20 µM.

The same assay, now with this note: Influenza A virus, PR/8, MDCK, MDCK cells infected with A/PR/8/34; survival of infected cells; class symbols; read-out: IC50 (mean all).
As for `O=C1NCCCC[C@@H]1Nc1ccnc(-c2c[nH]c3ncc(F)cc23)n1` [Compound 501], the half-maximal inhibitory concentration (IC50) fell in the range of 5 to 20 µM. Take `CC(C)(C)OC(=O)N1CCOCC1CNc1nc(-c2c[nH]c3ncc(Cl)cc23)ncc1F` (centres unmarked) [Compound 515, Tert-Butyl 3-((2-(5-chloro-1H-pyrrolo[2,3-b]pyridin-3-yl)-5-fluoropyrimidin-4-ylamino)methyl)morpholine-4-carboxylate]: the 50% inhibitory concentration (IC50) is over 20 µM.

Turning to `CCNC(=O)[C@H]1CCCC[C@@H]1Nc1nc(-c2c[nH]c3ncc(Cl)cc23)ncc1F` [Compound 521, (1S,2S)-2-(2-(5-chloro-1H-pyrrolo[2,3-b]pyridin-3-yl)-5-fluoropyrimidin-4-ylamino)-N-ethylcyclohexanecarboxamide], the half-inhibitory concentration (IC50) lay within 5 to 20 µM.

The same assay, now with this note: Influenza A virus, PR/8, MDCK, mean all; A/PR/8/34 infected MDCK cells, CPE assay; read-out: IC50.
On to `O=C(OC1CCOC1)N1CC(Nc2nc(-c3c[nH]c4ncc(Cl)cc34)ncc2F)C1` [Compound 422, (S)-tetrahydrofuran-3-yl 3-((2-(5-chloro-1H-pyrrolo[2,3-b]pyridin-3-yl)-5-fluoropyrimidin-4-ylamino)azetidine-1-carboxylate], for which the IC50 is over 20 µM.

As to `O=C(N[C@@H]1CCCC[C@@H]1Nc1nc(-c2c[nH]c3ncccc23)ncc1F)c1ccccc1` (relative stereo) [Compound 344, N-[cis-2-[[5-fluoro-2-(1H-pyrrolo[2,3-b]pyridin-3-yl)pyrimidin-4-yl]amino]cyclohexyl]benzamide], the 50% inhibitory concentration (IC50) is over 20 µM. For the molecule `CCCS(=O)(=O)N[C@@H]1CCCC[C@@H]1Nc1nc(-c2c[nH]c3ncccc23)ncc1F` (relative stereo) [Compound 346, N-[cis-2-[[5-fluoro-2-(1H-pyrrolo[2,3-b]pyridin-3-yl)pyrimidin-4-yl]amino]cyclohexyl]propane-1-sulfonamide], the IC50 is over 20 µM.

Regarding `CC1(C(=O)N2CC[C@H](Nc3nc(-c4c[nH]c5ncc(Cl)cc45)ncc3F)C2)COC1` [Compound 482], the IC50 is under 5 µM. Regarding `CC(C)NC(=O)N1CCOC(CNc2nc(-c3c[nH]c4ncc(Cl)cc34)ncc2F)C1` (centres unmarked) [Compound 446, 2-((2-(5-chloro-1H-pyrrolo[2,3-b]pyridin-3-yl)-5-fluoropyrimidin-4-ylamino)methyl)-N-isopropylmorpholine-4-carboxamide], the half-inhibitory concentration (IC50) is over 20 µM. Turning to `CCCS(=O)(=O)N1CC[C@H](Nc2nc(-c3c[nH]c4ncc(Cl)cc34)ncc2F)C1` [Compound 410, (S)-2-(5-chloro-1H-pyrrolo[2,3-b]pyridin-3-yl)-5-fluoro-N-(1-(propylsulfonyl)pyrrolidin-3-yl)pyrimidin-4-amine], the half-maximal inhibitory concentration (IC50) was 5 to 20 µM. The same measure, in the same setting: the result for `CS(=O)(=O)N1CCCC[C@H]1CNc1nc(-c2c[nH]c3ncc(Cl)cc23)ncc1F` [Compound 384, (S)-2-(5-chloro-1H-pyrrolo[2,3-b]pyridin-3-yl)-5-fluoro-N-((1-(methylsulfonyl)-piperidin-2-yl)methyl)pyrimidin-4-amine] reads under 5 µM; that for `CCCC(=O)N[C@@H]1CCCC[C@@H]1Nc1nc(-c2c[nH]c3ncc(Cl)cc23)ncc1F` (relative stereo) [Compound 334, N-[cis-2-[[2-(5-chloro-1H-pyrrolo[2,3-b]pyridin-3-yl)-5-fluoro-pyrimidin-4-yl]amino]cyclohexyl]butanamide], 5 to 20 µM; that for `CCCCS(=O)(=O)N1CCCC[C@@H]1CNc1nc(-c2c[nH]c3ncc(Cl)cc23)ncc1F` [Compound 329, (R)—N-((1-(butylsulfonyl)piperidin-2-yl)methyl)-2-(5-chloro-1H-pyrrolo[2,3-b]pyridin-3-yl)-5-fluoropyrimidin-4-amine], over 20 µM. As to `CCCCS(=O)(=O)N1CC[C@H](Nc2nc(-c3c[nH]c4ncc(Cl)cc34)ncc2F)C1` [Compound 402, (S)—N-(1-(butylsulfonyl)pyrrolidin-3-yl)-2-(5-chloro-1H-pyrrolo[2,3-b]pyridin-3-yl)-5-fluoropyrimidin-4-amine], the IC50 was in the range of 5 to 20 µM.

Staying with this assay, now noted: mean all; A/PR/8/34 infected MDCK cells, CPE assay; read-out: IC50.
As for `CC(C)S(=O)(=O)N1CCC(Nc2nc(-c3c[nH]c4ncc(Cl)cc34)ncc2F)C1` (centres unmarked) [Compound 408], the IC50 was over 20 µM. `CC(=O)N1CCC(Nc2nc(-c3c[nH]c4ncc(Cl)cc34)ncc2F)C1` (centres unmarked) [Compound 471]: the IC50 is under 5 µM. In the case of `O=S(=O)(CC(F)(F)F)N1CCCC[C@@H]1CNc1nc(-c2c[nH]c3ncc(Cl)cc23)ncc1F` [Compound 387], the IC50 is 5 to 20 µM.

The assay is the same for the next values; noted with them: read-out: IC50 (mean all).
`COCC(=O)N1CCC[C@H](Nc2nc(-c3c[nH]c4ncc(Cl)cc34)ncc2F)C1` [Compound 486]: the IC50 was in the range of 5 to 20 µM. Consider `COCCC(=O)N1CCC[C@H](Nc2nc(-c3c[nH]c4ncc(Cl)cc34)ncc2F)C1` [Compound 488], for which the IC50 was over 20 µM.
